According to PMC3612716 (British Journal of Clinical Pharmacology, 2012):

Tests used:
[1] = system: patients with type 2 diabetes / healthy subjects; conditions: previous findings; cited from earlier work
[2] = system: healthy subjects; test: Thorough QT study: ECG; conditions: positive control
[3] = system: healthy subjects; test: Safety and tolerability; format: in vivo, human; conditions: ITT population, by treatment

Molecule | changes in QTc at therapeutic concentrations [1] | LS mean ΔΔQTcP (two-sided 90% CI) ([2]; 1 h following single 400 mg oral dose) | LS mean ΔΔQTcP (two-sided 90% CI) ([2]; 2 h following single 400 mg oral dose) | LS mean ΔΔQTcP (two-sided 90% CI) ([2]; 3 h following single 400 mg oral dose) | subjects experiencing adverse events [3] [%]
liraglutide | no clinically meaningful changes in QTc | – | – | – | –
COc1c(N2C[C@@H]3CCCN[C@@H]3C2)c(F)cc2c(=O)c(C(=O)O)cn(C3CC3)c12 [moxifloxacin] | – | 5.47 (2.82, 8.12) ms | 10.56 (8.46, 12.67) ms | 10.93 (8.71, 13.13) | 23
